In general, Kd refers to the equilibrium constant for the complex coming apart. Low values mean a tighter complex, high ones a looser complex.

The test system of data set [1] is RAO horses. In words: Phase II: cross-over, blinded mouldy hay challenge study, 7 days treatment. To be noted: for EL values over time / ΔPL values over time: Days 4 and 8 compared to Day 1; for RL values over time: clenbuterol group and 800 μg LAMA 1 group. It counts as in vivo, horse. How it is done:
LAMA 1 is investigated in a cross-over, blinded mouldy hay challenge study. 8 RAO horses are examined in the study, which is divided into an acclimation and a treatment phase. Placebo for LAMA 1 is administered once daily per inhalation via the Equine Inhaler device to all horses for 1 week in the acclimation period. LAMA 1 and clenbuterol are administered to the horses in a cross-over design in the treatment phase. The horses are challenged by exposure to mouldy hay throughout the acclimation and treatment phases. LAMA 1 is administered with the doses of 200 μg (2 actuations)/400 μg (4 actuations)/800 μg (8 actuations)/horse (ex-RESPIMAT®) once daily for 7 days per inhalation via the Equine Inhaler device. Nozzle A and a commercially available RESPIMAT® is used in the study. Clenbuterol is administered with a dose of 0.8 μg/kg per os, twice daily for 7 days. Lung function variables (change in transpulmonary pressure (ΔPL), lung resistance (RL) and lung elastance (EL)), breathing effort score, Borborygmi score, blood gas analysis are examined during the study.

Data set [2] addresses Hm3 (Homo sapiens, UniProt P20309). Nature of the data set: Binding to Hm3 receptor (mean KD, dissociation half-life).
For data set [3], the system named is healthy horses. In words: Phase III: ECG measurements for 48 h after single inhalation. It counts as in vivo, horse. The note with it: single 800 μg inhalation, aqueous formulation, two healthy horses. How it is done: A single administration of 800 μg LAMA 1 (8 actuations in aqueous formulation) is performed per inhalation to two healthy horses in phase III. Subsequently, ECG measurements are done for 48 h.

Data set [4] can be described thus: Kallos-Pagel Model, effects vs. tiotropium. It counts as in vivo.
Data set [5] concerns RAO horses. In words: Phase I and IV: mouldy hay challenge, single inhaled administration, lung function for 24 h. It counts as in vivo, horse. How it is done: LAMA 1 is investigated in two RAO horses at different phases or periods as part of a mouldy hay challenge study. The horses are challenged every day by exposure to mouldy hay. LAMA 1 is administered via the Equine Inhaler device at different doses or formulations. Lung function parameters (change in transpulmonary pressure (ΔPL), lung resistance (RL) and lung elastance (EL)) are measured for 24 h. A single administration of 800 μg LAMA 1 (8 actuations in aqueous formulation) is performed per inhalation to two RAO horses (ID numbers: 312 and 91) in phase I. Two RAO horses are treated with LAMA 1 in phase IV (ID numbers: 40 and 91), which can be divided into three periods. 2000 μg LAMA 1 (20 actuations in aqueous formulation) is administered per inhalation in period 1. 2000 μg LAMA 1 ([…] in ethanolic formulation) is administered per inhalation in period 2. 2000 μg LAMA 1 (20 actuations in ethanolic formulation) is administered per inhalation in period 3.

Where [6] appears, read: 800 μg group, Day 7 compared to Day 0.
The mark [7] stands for this setting: day 4, all LAMA 1 groups (200, 400, 800 μg).

Structures are written as SMILES.

Hm3, sequence (P20309 whole entry): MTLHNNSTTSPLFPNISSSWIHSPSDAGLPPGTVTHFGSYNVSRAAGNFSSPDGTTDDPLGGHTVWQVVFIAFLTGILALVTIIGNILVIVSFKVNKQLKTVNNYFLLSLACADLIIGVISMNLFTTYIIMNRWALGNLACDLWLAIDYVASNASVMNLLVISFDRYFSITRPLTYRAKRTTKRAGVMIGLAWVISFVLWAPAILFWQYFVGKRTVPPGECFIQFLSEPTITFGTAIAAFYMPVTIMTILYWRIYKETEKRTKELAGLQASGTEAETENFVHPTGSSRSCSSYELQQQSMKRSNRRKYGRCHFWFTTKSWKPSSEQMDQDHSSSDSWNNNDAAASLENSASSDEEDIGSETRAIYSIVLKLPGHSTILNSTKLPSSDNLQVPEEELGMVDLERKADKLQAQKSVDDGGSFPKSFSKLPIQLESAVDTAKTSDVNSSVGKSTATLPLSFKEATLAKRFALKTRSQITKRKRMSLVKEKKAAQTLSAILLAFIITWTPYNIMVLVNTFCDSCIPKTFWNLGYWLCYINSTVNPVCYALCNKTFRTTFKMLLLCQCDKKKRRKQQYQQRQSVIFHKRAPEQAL

On to `CC(C(=O)O[C@H]1CC2C3O[C@@H]3[C@H](C1)[N+]2(C)C)(c1ccccc1)c1ccccc1` (stereo partly drawn) [LAMA 1, (1α,2β,4β,5α,7β)-3-Oxa-9-azoniatricyclo [3.3.1.0^2.4] nonane, 9,9-dimethyl-7-(1-oxo-2,2-diphenylpropoxy)-bromide], for which, in data set [1] (setting [6]), the “pH in arterial blood” value is “increases” and the “paCO2 in arterial blood” value is recorded as “reduces significantly”. In addition, in data set [1], the “EL values over time” value is on record as “None of the treatments (LAMA 1 or clenbuterol) alters significantly”, the “ΔPL values over time” value was “None of the treatments (LAMA 1 or clenbuterol) alters significantly” and the “RL values over time” value was “significantly reduced”. In data set [1] (LAMA 1 once daily for one week, clenbuterol twice daily for one week), the “Improvement in lung function after one week, compared with clenbuterol” value is “comparable to the significant improvement in lung function after the twice daily administration of clenbuterol”. For the same compound, in data set [1] (day 4, 200 and 400 μg LAMA 1), the “Change in EL 30 min after administration” value was “statistically significant” and the “Change in ΔPL 30 min after administration” value is “statistically significant”. Besides, in data set [1] (setting [7]), the “EL 30 min after administration vs pre-treatment” value is listed as “decrease”, the “RL 30 min after administration vs pre-treatment” value is recorded as “decrease” and the “ΔPL 30 min after administration vs pre-treatment” value is “decrease”. The compound also registered a Kd in data set [2] of 0.4 nM. Also, in data set [3], the “ECG: abnormal observation” value is reported as “Only one observation is classified as either a first-degree heart block with aberrant intraventricular repolarization, or an artifact”; the “ECG: arrhythmias” value is “Physiological arrhythmias are noted in both horses before and following the administration”. In addition, the “Effects in the Kallos-Pagel Model: protection” value in data set [4] (acute and chronic) came out at 24 h. Further, the “Effects in the Kallos-Pagel Model vs. tiotropium: lower efficacy (chronic)” value in data set [4] (chronic, vs. tiotropium) is given as 10 fold. Also, in data set [5] (24 h, compared with pre-treatment values), the “Lung function variables at 24 h after single administration” value was “below or reach the pre-treatment values”. In data set [5] (depending on lung function parameter, dose or formulation), the “Time until which lung function values continue to drop” value fell in the range of 2 to 8 h. For the same compound, the “Start of decrease in lung function variables (ΔPL, RL, EL) after administration” value in data set [5] (single inhalation of 800 μg or 2000 μg, aqueous or ethanolic formulation) came to 5 min.

Consider `CC(C)(C)NCC(O)c1cc(Cl)c(N)c(Cl)c1` (centres unmarked) [clenbuterol, reference compound], for which, in data set [1], the “EL values over time” value is given as “None of the treatments (LAMA 1 or clenbuterol) alters significantly”, the “ΔPL values over time” value is recorded as “None of the treatments (LAMA 1 or clenbuterol) alters significantly” and the “RL values over time” value was “significantly reduced”. In addition, in data set [1] (study day 6, clenbuterol 0.8 μg/kg per os twice daily compared with 2 or 4 actuations of LAMA 1), the Breathing effort score entry is recorded as “significantly smaller breathing effort scores”.

The record behind these values is patent publication US10682345B2, “Muscarinic antagonists and combinations thereof for the treatment of airway disease in horses” (Boehringer Ingelheim Vetmedica GmbH, priority 2014, dated 2020).
